Measured values as given in patent US4336375A, “Cephalosporanic acid derivatives” (American Cyanamid Company, priority 1980, dated 1982).
In brackets after ≈: the same amount, converted by molar mass. Read-outs that look alike come from different tables or passages of the source.

How the values were obtained:
Assay type in all cases: cell-based
[1] = test system: Staphylococcus aureus Q74-1; test: In vitro MIC, agar dilution, Staphylococcus aureus Q74-1; settings: read-out: Minimal Inhibitory Concentration
Protocol: (§1) The in vitro activity of representative compounds of the present invention are given in the following Table I in terms of minimal inhibitory concentration. The test used was the standard agar dilution test using a Steers multiple inocula replicator and incubating at 35° C. for 18 hours in conventional nutrient agar.

[2] = test system: Enterobacter cloacae OSU75-2; test: In vitro MIC, agar dilution, Enterobacter cloacae OSU75-2; settings: read-out: Minimal Inhibitory Concentration
Protocol: as §1

[3] = test system: Enterobacter cloacae MA75-1; test: In vitro MIC, agar dilution, Enterobacter cloacae MA75-1; settings: read-out: Minimal Inhibitory Concentration
Protocol: as §1

[4] = test system: Klebsiella pneumoniae UR76-1; test: In vitro MIC, agar dilution, Klebsiella pneumoniae UR76-1; settings: read-out: Minimal Inhibitory Concentration
Protocol: as §1

[5] = test system: Proteus rettgeri N76-1; test: In vitro MIC, agar dilution, Proteus rettgeri N76-1; settings: Providencia rettgeri, read-out: Minimal Inhibitory Concentration
Protocol: as §1

[6] = test system: Klebsiella pneumoniae W75-2; test: In vitro MIC, agar dilution, Klebsiella pneumoniae W75-2; settings: read-out: Minimal Inhibitory Concentration
Protocol: as §1

[7] = test system: Escherichia coli W75-1; test: In vitro MIC, agar dilution, Escherichia coli W75-1; settings: W751, 35° C., 18 hours, nutrient agar, read-out: Minimal Inhibitory Concentration
Protocol: as §1

[8] = test system: Enterococcus SM77-15; test: In vitro MIC, agar dilution, Enterococcus SM77-15; settings: read-out: Minimal Inhibitory Concentration
Protocol: as §1

[9] = test system: Klebsiella pneumoniae MA75-1; test: In vitro MIC, agar dilution, Klebsiella pneumoniae MA75-1; settings: read-out: Minimal Inhibitory Concentration
Protocol: as §1

[10] = test system: Enterobacter aerogenes UR76-3; test: In vitro MIC, agar dilution, Enterobacter aerogenes UR76-3; settings: Klebsiella aerogenes, read-out: Minimal Inhibitory Concentration
Protocol: as §1

[11] = test system: Serratia marcens K77-1; test: In vitro MIC, agar dilution, Serratia marcens K77-1; settings: read-out: Minimal Inhibitory Concentration
Protocol: as §1

[12] = test system: Klebsiella pneumoniae W75-4; test: In vitro MIC, agar dilution, Klebsiella pneumoniae W75-4; settings: read-out: Minimal Inhibitory Concentration
Protocol: as §1

[13] = test system: Pseudomonas aeruginosa 12-4-4; test: In vitro MIC, agar dilution, Pseudomonas aeruginosa 12-4-4; settings: read-out: Minimal Inhibitory Concentration
Protocol: as §1

[14] = test system: Escherichia coli OSU75-1; test: In vitro MIC, agar dilution, Escherichia coli OSU75-1; settings: OSU751, 35° C., 18 hours, nutrient agar, read-out: Minimal Inhibitory Concentration
Protocol: as §1

[15] = test system: Klebsiella pneumoniae AD; test: In vitro MIC, agar dilution, Klebsiella pneumoniae AD; settings: read-out: Minimal Inhibitory Concentration
Protocol: as §1

[16] = test system: Pseudomonas aeruginosa PD05141; test: In vitro MIC, agar dilution, Pseudomonas aeruginosa PD05141; settings: read-out: Minimal Inhibitory Concentration
Protocol: as §1

[17] = test system: Pseudomonas aeruginosa G236; test: In vitro MIC, agar dilution, Pseudomonas aeruginosa G236; settings: read-out: Minimal Inhibitory Concentration
Protocol: as §1

[18] = test system: Escherichia coli 311; test: In vitro MIC, agar dilution, Escherichia coli 311; settings: 35° C., 18 hours, nutrient agar, read-out: Minimal Inhibitory Concentration
Protocol: as §1

[19] = test system: Escherichia coli ESS22-31; test: In vitro MIC, agar dilution, Escherichia coli ESS22-31; settings: read-out: Minimal Inhibitory Concentration
Protocol: as §1

[20] = test system: Pseudomonas aeruginosa UCS 76-13; test: In vitro MIC, agar dilution, Pseudomonas aeruginosa UCS 76-13; settings: read-out: Minimal Inhibitory Concentration
Protocol: as §1

[21] = test system: Proteus morganii K72; test: In vitro MIC, agar dilution, Proteus morganii K72; settings: Morganella morganii, read-out: Minimal Inhibitory Concentration
Protocol: as §1

[22] = test system: Serratia K101; test: In vitro MIC, agar dilution, Serratia K101; settings: read-out: Minimal Inhibitory Concentration
Protocol: as §1

[23] = test system: Proteus vulgaris N74-1; test: In vitro MIC, agar dilution, Proteus vulgaris N74-1; settings: N741, 35° C., 18 hours, nutrient agar, read-out: Minimal Inhibitory Concentration
Protocol: as §1

[24] = test system: Serratia marcens QHC77-2; test: In vitro MIC, agar dilution, Serratia marcens QHC77-2; settings: read-out: Minimal Inhibitory Concentration
Protocol: as §1

[25] = test system: Staphylococcus aureus Q74-6; test: In vitro MIC, agar dilution, Staphylococcus aureus Q74-6; settings: read-out: Minimal Inhibitory Concentration
Protocol: as §1

[26] = Q741, Staphylococcus aureus Q74-1, agar dilution, 35° C., 18 hours, nutrient agar
[27] = OSU752, Enterobacter cloacae OSU75-2, agar dilution, 35° C., 18 hours, nutrient agar
[28] = MA751, Enterobacter cloacae MA75-1, agar dilution, 35° C., 18 hours, nutrient agar
[29] = UR761, Klebsiella pneumoniae UR76-1, agar dilution, 35° C., 18 hours, nutrient agar
[30] = N761, Proteus rettgeri N76-1, agar dilution, 35° C., 18 hours, nutrient agar
[31] = W752, Klebsiella pneumoniae W75-2, agar dilution, 35° C., 18 hours, nutrient agar
[32] = SM7715, Enterococcus SM77-15, agar dilution, 35° C., 18 hours, nutrient agar
[33] = MA751, Klebsiella pneumoniae MA75-1, agar dilution, 35° C., 18 hours, nutrient agar
[34] = UR763, Enterobacter aerogenes UR76-3, agar dilution, 35° C., 18 hours, nutrient agar
[35] = K771, Serratia marcens K77-1, agar dilution, 35° C., 18 hours, nutrient agar
[36] = W754, Klebsiella pneumoniae W75-4, agar dilution, 35° C., 18 hours, nutrient agar
[37] = 1244, Pseudomonas aeruginosa 12-4-4, agar dilution, 35° C., 18 hours, nutrient agar
[38] = Klebsiella pneumoniae AD, agar dilution, 35° C., 18 hours, nutrient agar
[39] = Pseudomonas aeruginosa PD05141, agar dilution, 35° C., 18 hours, nutrient agar
[40] = Pseudomonas aeruginosa G236, agar dilution, 35° C., 18 hours, nutrient agar
[41] = ESS2231, Escherichia coli ESS22-31, agar dilution, 35° C., 18 hours, nutrient agar
[42] = UCS7613, Pseudomonas aeruginosa UCS 76-13, agar dilution, 35° C., 18 hours, nutrient agar
[43] = Proteus morganii K72, agar dilution, 35° C., 18 hours, nutrient agar
[44] = Serratia K101, agar dilution, 35° C., 18 hours, nutrient agar
[45] = QHC772, Serratia marcens QHC77-2, agar dilution, 35° C., 18 hours, nutrient agar
[46] = Q746, Staphylococcus aureus Q74-6, agar dilution, 35° C., 18 hours, nutrient agar
[47] = Enterobacter cloacae, MA751, 18 h
[48] = Pseudomonas aeruginosa, G236, 18 h

CCN1CCN(C(=O)NC(C(=O)NC2C(=O)N3C(C(=O)O)=C(CSc4nnc(-n5nc(C)cc5C)n4N)CS[C@H]23)c2ccc(O)cc2)C(=O)C1=O (some centres unmarked) [Compound VIII, 7-[2-(4-Ethyl-2,3-dioxo-1-piperazinecarboxamido)-2-(p-hydroxyphenyl)acetamido]-3-[4-amino-5-(3,5-dimethyl-1-pyrazolyl)-1,2,4-triazol-3-ylthiomethyl]-3-cephem-4-carboxylic acid]
MIC [1, 26]: 4 mg/L (≈ 5.41 µM)
MIC [2, 27]: 128 mg/L (≈ 173 µM)
MIC [3, 28]: > 128 mg/L
MIC [4, 29]: 32 mg/L (≈ 43.3 µM)
MIC [5, 30]: 16 mg/L (≈ 21.6 µM)
MIC [6, 31]: 4 mg/L (≈ 5.41 µM)
MIC [7]: 4 mg/L (≈ 5.41 µM)
MIC [8, 32]: 128 mg/L (≈ 173 µM)
MIC [9, 33]: 2 mg/L (≈ 2.7 µM)
MIC [10, 34]: 1 mg/L (≈ 1.35 µM)
MIC [11, 35]: 128 mg/L (≈ 173 µM)
MIC [12, 36]: 32 mg/L (≈ 43.3 µM)
MIC [13, 37]: 32 mg/L (≈ 43.3 µM)
MIC [14]: 4 mg/L (≈ 5.41 µM)
MIC [15, 38]: 2 mg/L (≈ 2.7 µM)
MIC [16, 39]: > 128 mg/L
MIC [17, 40]: 128 mg/L (≈ 173 µM)
MIC [18]: 2 mg/L (≈ 2.7 µM)
MIC [19, 41]: ≤ 0.12 mg/L
MIC [20, 42]: > 128 mg/L
MIC [21, 43]: 32 mg/L (≈ 43.3 µM)
MIC [22, 44]: 64 mg/L (≈ 86.5 µM)
MIC [23]: 128 mg/L (≈ 173 µM)
MIC [24, 45]: > 128 mg/L
MIC [25, 46]: 8 mg/L (≈ 10.8 µM)

CCN1CCN(C(=O)NC(C(=O)NC2C(=O)N3C(C(=O)O)=C(CSc4n[nH]c(-n5cccn5)n4)CS[C@H]23)c2ccc(O)cc2)C(=O)C1=O (some centres unmarked) [Compound VI, 7-[2-(4-Ethyl-2,3-dioxo-1-piperazinecarboxamido)-2-(p-hydroxyphenyl)acetamido]-3-[5-(1-pyrazolyl)-1,2,4-triazol-3-ylthiomethyl]-3-cephem-4-carboxylic acid]
MIC [1, 26]: 4 mg/L (≈ 5.74 µM)
MIC [2, 27]: 64 mg/L (≈ 91.9 µM)
MIC [3, 47]: > 128 mg/L
MIC [4, 29]: 16 mg/L (≈ 23 µM)
MIC [5, 30]: 16 mg/L (≈ 23 µM)
MIC [6, 31]: 4 mg/L (≈ 5.74 µM)
MIC [7]: 2 mg/L (≈ 2.87 µM)
MIC [8, 32]: > 128 mg/L
MIC [9, 33]: 2 mg/L (≈ 2.87 µM)
MIC [10, 34]: 0.5 mg/L (≈ 0.718 µM)
MIC [11, 35]: > 128 mg/L
MIC [12, 36]: 32 mg/L (≈ 45.9 µM)
MIC [13, 37]: 16 mg/L (≈ 23 µM)
MIC [14]: 2 mg/L (≈ 2.87 µM)
MIC [15, 38]: 0.5 mg/L (≈ 0.718 µM)
MIC [16, 39]: 64 mg/L (≈ 91.9 µM)
MIC [17, 40]: 32 mg/L (≈ 45.9 µM)
MIC [18]: 1 mg/L (≈ 1.44 µM)
MIC [19, 41]: ≤ 0.12 mg/L
MIC [20, 42]: 64 mg/L (≈ 91.9 µM)
MIC [21, 43]: 32 mg/L (≈ 45.9 µM)
MIC [22, 44]: 128 mg/L (≈ 184 µM)
MIC [23]: 16 mg/L (≈ 23 µM)
MIC [24, 45]: > 128 mg/L
MIC [25, 46]: 8 mg/L (≈ 11.5 µM)

CC(=O)OCC1=C(C(=O)O)N2C(=O)[C@@H](NC(=O)Cc3cccs3)[C@H]2SC1 [Compound X, Cephalothin, reference compound]
MIC ([1]; Staphylococcus aureus, Q741, 18 h): ≤ 0.06 mg/L
MIC ([2]; Enterobacter cloacae, OSU752, 18 h): > 128 mg/L
MIC [3, 47]: > 128 mg/L
MIC ([4]; Klebsiella pneumoniae, UR761, 18 h): 8 mg/L (≈ 20.2 µM)
MIC ([5]; N761, 18 h): > 128 mg/L
MIC ([6]; Klebsiella pneumoniae, W752, 18 h): 2 mg/L (≈ 5.04 µM)
MIC [7]: 8 mg/L (≈ 20.2 µM)
MIC ([8]; Enterococcus, SM7715, 18 h): 32 mg/L (≈ 80.7 µM)
MIC ([9]; Klebsiella pneumoniae, MA751, 18 h): 1 mg/L (≈ 2.52 µM)
MIC ([10]; UR763, 18 h): 2 mg/L (≈ 5.04 µM)
MIC ([11]; Serratia, K771, 18 h): > 128 mg/L
MIC ([12]; Klebsiella pneumoniae, W754, 18 h): 8 mg/L (≈ 20.2 µM)
MIC ([13]; Pseudomonas aeruginosa, 1244, 18 h): > 128 mg/L
MIC [14]: 8 mg/L (≈ 20.2 µM)
MIC ([15]; Klebsiella pneumoniae, 18 h): 2 mg/L (≈ 5.04 µM)
MIC ([16]; Pseudomonas aeruginosa, PD05141, 18 h): > 128 mg/L
MIC [17, 48]: > 128 mg/L
MIC [18]: 4 mg/L (≈ 10.1 µM)
MIC ([19]; Escherichia coli, ESS2231, 18 h): ≤ 0.06 mg/L
MIC ([20]; Pseudomonas aeruginosa, UCS7613, 18 h): > 128 mg/L
MIC ([21]; K72, 18 h): > 128 mg/L
MIC ([22]; Serratia, K101, 18 h): > 128 mg/L
MIC ([24]; Serratia, QHC772, 18 h): > 128 mg/L
MIC ([25]; Staphylococcus aureus, Q746, 18 h): 0.12 mg/L (≈ 0.303 µM)

Nn1c(SCC2=C(C(=O)O)N3C(=O)C(NC(=O)Cc4cccs4)[C@H]3SC2)nnc1-n1cccn1 (some centres unmarked) [Compound IV, 7[2-(2-Thienyl)acetamido]-3-[4-amino-5-(1-pyrazolyl)-1,2,4-triazol-3-ylthiomethyl]-3-cephem-4-carboxylic acid]
MIC [1, 26]: ≤ 0.12 mg/L
MIC [2, 27]: > 128 mg/L
MIC [3, 28]: > 128 mg/L
MIC [4, 29]: > 128 mg/L
MIC [5, 30]: > 128 mg/L
MIC [6, 31]: 2 mg/L (≈ 3.86 µM)
MIC [7]: 8 mg/L (≈ 15.4 µM)
MIC [8, 32]: 32 mg/L (≈ 61.7 µM)
MIC [9, 33]: 2 mg/L (≈ 3.86 µM)
MIC [10, 34]: 1 mg/L (≈ 1.93 µM)
MIC [11, 35]: > 128 mg/L
MIC [12, 36]: 16 mg/L (≈ 30.9 µM)
MIC [13, 37]: > 128 mg/L
MIC [14]: 4 mg/L (≈ 7.71 µM)
MIC [15, 38]: 4 mg/L (≈ 7.71 µM)
MIC [16, 39]: > 128 mg/L
MIC [17, 48]: > 128 mg/L
MIC [18]: 4 mg/L (≈ 7.71 µM)
MIC [19, 41]: ≤ 0.06 mg/L
MIC [20, 42]: > 128 mg/L
MIC [21, 43]: > 128 mg/L
MIC [22, 44]: > 128 mg/L
MIC [24, 45]: > 128 mg/L
MIC [25, 46]: 0.25 mg/L (≈ 0.482 µM)
